Results published in ChEMBL document CHEMBL3792297, “Studies on phenothiazines: New microtubule-interacting compounds with phenothiazine A-ring as potent antineoplastic agents” (Bioorg Med Chem, 2016).

Tests used:
[1] = species on record: Ovis aries; test: Inhibition of sheep brain tubulin polymerization at 100 uM by DAPI staining-based fluorimetric method
[2] = Inhibition of sheep brain tubulin polymerization preincubated for 1 hr measured after 30 mins by turbidimetric-spectrophotometric method; parameters: species or system Ovis aries
[3] = Inhibition of sheep brain tubulin polymerization by DAPI staining-based fluorimetric method; parameters: species or system Ovis aries
[4] = test system: A498; test: Growth inhibition of human A498 cells after 48 hrs by SRB assay; format: functional; details: A498, 48 h
[5] = Growth inhibition of human SF295 cells after 48 hrs by SRB assay; format: functional; details: SF-295, 48 h
[6] = Growth inhibition of human OVCAR3 cells after 48 hrs by SRB assay; format: functional; details: OVCAR-3, 48 h
[7] = target: Tubulin (Bos taurus, UniProt Q6B856+Q862L2+Q862F3); test: Inhibition of bovine tubulin polymerization preincubated for 30 mins followed by GTP addition measured after 20 mins by spectrophotometric method; format: protein assay
[8] = Growth inhibition of human DU145 cells after 48 hrs by SRB assay; format: functional; details: DU-145, 48 h

| SMILES | inhibition [1] | IC50 [3] | other results |
| --- | --- | --- | --- |
| Cc1cc(C(=O)N2c3ccccc3Sc3ccccc32)ccc1Br | 43% |  |  |
| C=C(c1ccc(OC)c(O)c1)c1cc(OC)c(OC)c(OC)c1 |  |  | IC50 [2]: 1500 nM |
| COc1ccc(C(=S)N2c3ccccc3Sc3ccccc32)cc1F | 14% |  |  |
| COc1cc([C@@H]2c3cc4c(cc3C[C@H]3COC(=O)[C@@H]32)OCO4)cc(OC)c1OC [DESOXYPODOPHYLLOTOXIN] | 100% | 1800 nM |  |
| COc1ccc(C(=O)N2c3ccccc3Sc3ccccc32)cc1N | 95% | 9500 nM |  |

The next lines start with results.

| inhibition [1] | IC50 [3] | SMILES | other results |
| --- | --- | --- | --- |
| 48% |  | O=C(c1ccc(OC(F)(F)F)c(F)c1)N1c2ccccc2Sc2ccccc21 |  |
| 10% |  | S=C(c1ccc2c(c1)Sc1ccccc1N2)c1c[nH]c2ccccc12 |  |
| 44% |  | O=C(c1ccc(F)cc1Cl)N1c2ccccc2Sc2ccccc21 |  |
| 99% | 3400 nM | COc1ccc(C(=O)c2cc(OC)c(OC)c(OC)c2)cc1O [PHENSTATIN] | GI50 [4]: 380 nM; GI50 [5]: 52 nM; GI50 [6]: 2.3 nM; IC50 [7]: 1000 nM; GI50 [8]: 34 nM |
